Some test systems named below: HOP-92 NSCLC; UO-31 renal; EKVX NSCLC; SK-OV-3 ovarian; NCI-H23 lung; NCI/ADR-RES ovarian; HS 578T breast; HOP-62 NSCLC; SF-268 CNS; COLO 205 colon; NCI-H460 lung; MDA-MB-435; LOX IMVI melanoma; SF-539 CNS; CAKI-1 renal; TK-10 renal; SR leukemia; MDA-N; HCC-2998 colon; BT-549 breast.
Assay in all cases: NCI tumour cell line growth inhibition, 48 h

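All cell lines were grown in 96-well plates and treated with compound for 48 hours. Definition used: TGI = concentration required for complete inhibition of growth.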

For the molecule `CC(=O)c1c2c(cc3c1CC1(Cc4cc5c(cc4C1)C(=O)CCC5)C3)CCCC2` (stereo unspecified), the TGI was 40.1 µM with HOP-92 NSCLC; over 90.6 µM in the experiment with UO-31 renal; over 87.2 µM in the experiment on EKVX NSCLC; over 100 µM with SK-OV-3 ovarian; over 100 µM in the experiment on NCI-H23 lung; over 100 µM with NCI/ADR-RES ovarian. The TGI in the experiment with HS 578T breast was over 88.3 µM; in the experiment on HOP-62 NSCLC, 43.4 µM; with SF-268 CNS it was 65 µM; in the experiment with COLO 205 colon, 21.7 µM; with NCI-H460 lung, 67.2 µM; with MDA-MB-435, 11.4 µM. The TGI is over 53.5 µM in the experiment on LOX IMVI melanoma; 13.6 µM in the experiment on SF-539 CNS; over 100 µM in the experiment on CAKI-1 renal; over 100 µM in the experiment with TK-10 renal; 5.53 µM with SR leukemia; 12.9 µM in the experiment on MDA-N. The molecule also gave a TGI in the experiment on HCC-2998 colon of 97.9 µM.
Regarding `CN(C(=S)Cc1ccc(Cl)c(Cl)c1)C1CCCC[C@@H]1N1CCCC1` (stereo partly specified), the TGI in the experiment with UO-31 renal was 48.8 µM; in the experiment on EKVX NSCLC, over 100 µM; in the experiment with SK-OV-3 ovarian it was over 100 µM; in the experiment with NCI-H23 lung it was over 100 µM; in the experiment with NCI/ADR-RES ovarian, over 100 µM; with HOP-62 NSCLC, over 100 µM. Moreover, the TGI was over 100 µM in the experiment with BT-549 breast; 87.5 µM in the experiment with MDA-MB-435; over 100 µM in the experiment on SF-539 CNS; over 100 µM in the experiment with CAKI-1 renal; 89.2 µM in the experiment with TK-10 renal; 36.2 µM in the experiment on MDA-N.
As to `CCOC(=O)[C@@H]1ON2O[C@@H](OC3CCCCC3c3ccccc3)C[C@H]3OC(=O)[C@@H]1C32` (stereo partly specified), the TGI with HOP-92 NSCLC, in the experiment on UO-31 renal, in the experiment on EKVX NSCLC, in the experiment on SK-OV-3 ovarian, with NCI-H23 lung and in the experiment on NCI/ADR-RES ovarian was over 100 µM each time. For the same molecule, the TGI in the experiment with HS 578T breast, in the experiment on HOP-62 NSCLC, in the experiment on SF-268 CNS, in the experiment on COLO 205 colon, in the experiment with NCI-H460 lung and in the experiment on MDA-MB-435 was over 100 µM throughout. Moreover, the TGI in the experiment on LOX IMVI melanoma, with SF-539 CNS, in the experiment on CAKI-1 renal, with TK-10 renal, in the experiment with SR leukemia and in the experiment on MDA-N was over 100 µM each time. For the same molecule, the TGI in the experiment on HCC-2998 colon is over 100 µM.
In the case of `C=C1C2CC3CCC2C(OC(=O)c2ccccc2C(=O)O)C13` (stereo unspecified), the TGI in the experiment with HOP-92 NSCLC, in the experiment with UO-31 renal, with EKVX NSCLC, in the experiment with SK-OV-3 ovarian, in the experiment with NCI-H23 lung and in the experiment on NCI/ADR-RES ovarian was over 100 µM throughout. Besides, the TGI with HS 578T breast, with HOP-62 NSCLC, with SF-268 CNS, in the experiment on COLO 205 colon, with NCI-H460 lung and in the experiment on MDA-MB-435 was over 100 µM in each case. Also, the TGI in the experiment with LOX IMVI melanoma, in the experiment on SF-539 CNS, with CAKI-1 renal, in the experiment on TK-10 renal, with SR leukemia and in the experiment on MDA-N was over 100 µM each time. Also, the TGI with HCC-2998 colon is over 100 µM.
As to `CC(=O)N1C(=O)c2cc3ccccc3cc21`, the TGI in the experiment with HOP-92 NSCLC, in the experiment with UO-31 renal, in the experiment on EKVX NSCLC, in the experiment with SK-OV-3 ovarian, in the experiment with NCI-H23 lung and in the experiment with NCI/ADR-RES ovarian was over 100 µM in each case. Moreover, the TGI in the experiment on HS 578T breast, with HOP-62 NSCLC, in the experiment on SF-268 CNS, with COLO 205 colon, in the experiment with NCI-H460 lung and in the experiment on MDA-MB-435 was over 100 µM each time. Besides, the TGI in the experiment on LOX IMVI melanoma, with SF-539 CNS, with TK-10 renal, in the experiment with SR leukemia, in the experiment on MDA-N and in the experiment on HCC-2998 colon was over 100 µM in each case.
With `CC(C)[C@@H]1CC[C@@H](C)C[C@H]1OC(=O)/C=C1\C(C(=O)O[C@@H]2C[C@H](C)CC[C@H]2C(C)C)[C@H]2C=C[C@@H]1O2` (stereo partly specified), the TGI with HOP-92 NSCLC, in the experiment on UO-31 renal, in the experiment with EKVX NSCLC, in the experiment on SK-OV-3 ovarian, with NCI-H23 lung and in the experiment on NCI/ADR-RES ovarian was over 100 µM throughout. For the same molecule, the TGI in the experiment with HS 578T breast, in the experiment with HOP-62 NSCLC, in the experiment on SF-268 CNS, in the experiment on COLO 205 colon, with NCI-H460 lung and in the experiment on MDA-MB-435 was over 100 µM in each case. Also, the TGI in the experiment with LOX IMVI melanoma, with SF-539 CNS, in the experiment on CAKI-1 renal, in the experiment on TK-10 renal, in the experiment with SR leukemia and with MDA-N was over 100 µM throughout. For the same molecule, the TGI with HCC-2998 colon was over 100 µM.
For the molecule `CNC(=O)CCCNC(=O)CCCCC(=O)N(C)C`, the TGI in the experiment with UO-31 renal, in the experiment with SK-OV-3 ovarian, in the experiment with NCI-H23 lung, in the experiment on NCI/ADR-RES ovarian, in the experiment with HOP-62 NSCLC and in the experiment on SF-268 CNS was over 100 µM each time. In addition, the TGI in the experiment with COLO 205 colon, in the experiment on NCI-H460 lung, in the experiment with MDA-MB-435, in the experiment on SF-539 CNS, in the experiment with CAKI-1 renal and in the experiment on TK-10 renal was over 100 µM in each case. In addition, in the experiment on MDA-N, the TGI is over 100 µM.
Take `CCCCCCCCCC(=O)NC(CCC(=O)N(CCNC(=O)c1nc(-c2ccccc2)oc1-c1ccccc1)Cc1ccccc1)C(=O)O` (stereo unspecified): the TGI with HOP-92 NSCLC amounted to 34.8 µM; in the experiment on UO-31 renal it was 28.5 µM; in the experiment with EKVX NSCLC it was 35.1 µM; in the experiment on SK-OV-3 ovarian, 30.7 µM; in the experiment on NCI-H23 lung, 33.9 µM; in the experiment on NCI/ADR-RES ovarian it was 33.3 µM. For the same molecule, the TGI in the experiment with HOP-62 NSCLC is 30.5 µM; in the experiment on BT-549 breast, 33.5 µM; with SF-268 CNS, 34.6 µM; in the experiment with COLO 205 colon, 36.8 µM; in the experiment on NCI-H460 lung, over 100 µM; in the experiment on MDA-MB-435, 38.3 µM. Also, the TGI with LOX IMVI melanoma was found to be 35.9 µM; in the experiment on SF-539 CNS it was 41.7 µM; in the experiment on CAKI-1 renal it was 31.2 µM; in the experiment on TK-10 renal, 53.6 µM; with MDA-N, 36.4 µM.

Source of the values: PubChem BioAssay (NCI).
